16 compounds from patent US20240139125A1 (INDUSTRIAL COOPERATION FOUNDATION JEONBUK NATIONAL …, priority 2020, published 2024) can be followed below.

Holding throughout (format): cell-based
Data set [1] can be described thus: Cell viability for BIA and analogues, HT1080 cell line. The settings on record: human, HT1080 fibrosarcoma cells; for viability at 5 µM: HT1080, 5 uM; for viability at 10 µM: HT1080, 10 uM. As for the experimental part: HT1080 MDA-MB-231, SKBR3 and MCF7 cell lines were cultured in a 37° C., 5% CO2 incubator in a medium with 10% Fetal Bovine Serum, 1% penicillin and streptomycin (100 U) added to DMEM.
(§1) The compound prepared in Example 15 was treated with HT1080 fibrosarcoma cell line at 5 μM and 10 μM and cell viability was measured. In addition, the compound prepared in Example 15 on the DU145 prostate cancer cell line was treated with 10 μM, 20 μM, and 30 μM and cell viability was measured (see Table 2, Table 3).

The nature of data set [2]: Cell viability for BIA and analogues, DU145 cell line. The settings on record: human; for viability at 10 µM: DU145, 10 uM; for viability at 20 µM: DU145, 20 uM; for viability: DU145, 50 rpm. As for the experimental part:
as §1

Data set [3] has as its system AKT serine phosphorylation (S473). As to the kind of experiment: AKT phosphorylation by Western blotting. The settings on record: BIA analogues, 10 μM. As for the experimental part:
This is AKT signaling key to cancer cell growth, and BIA and its analogues tend to inhibit it. Only representative experimental results were presented. Data were expressed as mean±SD. After one-way ANOVA, Tukey's post hoc test is conducted.
After cell recovery, cell lytic buffer (10 mM Tris-Cl (pH 7.4), 5 mM EDTA, 130 mM NaCl, 1% Triton X-100) and protease inhibitor mix protease inhibitor cocktail (protease inhibitor cocktail and phosphatase inhibitor cocktail) were added and left at 4° C. for 30 minutes. After breaking the cells with ultrasound, they were centrifuged at 13,000× g at 4° C. for 30 minutes, and then the supernatant was taken, and the concentration was quantified using a protein quantification kit (Bio-Rad Laboratories, Hercules, CA, USA). 20 ug of the obtained protein was electrophoresis with polyacrylamide gel electrophoresis (SDS-PAGE) followed by electrotransfer to PVDF membrane (Bio-Rad). The membrane was blocked at room temperature for 1 hour with a TBS-T solution (20 mM Tris (pH 7.5), 137 mM NaCl, 0.05% Triton X-100) containing 5% skim milk. Then, after switching to a solution containing the primary antibody, it was reacted at 4° C. The membrane after the reaction was washed three times with TBS-T solution, reacted with a secondary antibody, and then luminesced using an ECL kit and autoradiography. […]
(A western blot detects proteins with antibodies after separation by electrophoresis.)

The test system of a further data set is SARS-CoV2 virus. As to the kind of experiment: MTT cell viability of Vero E6 cells infected with SARS-CoV2. The settings on record: Severe acute respiratory syndrome coronavirus 2, Vero C1008, 24 h, Vero E6, SARS-CoV2 0.1 MOI, 500 nM, 24 hours after treatment; control DMSO-S 66.52±2.28%. As for the experimental part:
Vero E6 cells, monkey kidney cell masters, were dispensed at 1×10^4 cells/well per well in 96 well plates and incubated at 37° C., 5% CO2 incubators for 24 hours. SARS-CoV2 to infect Vero E6 cells was S ARS-CoV 43326 distributed from the National Pathogen Resource Bank, and DMEM (2% FBS, 1% antibiotic-antimycotic) medium was dispensed at 100 μL/well to infect 0.1 MOI. For 1 hour The virus was removed after 1 hour of infection in a 37° C., 5% CO2 incubator.
Next, samples prepared so that BIA or analogue compounds were finally 500 nM were dispensed 100 μL/well, including the culture medium, and then treated in a 37° C., 5% CO2 incubator for 24 hours. In the same way, the group treated with 2 μM, 5 μM, or 10 μM of Remdesivir (Rem) was a positive control.
Check the condition of the cells, add 100 μL/well of 0.5 mg/ml MTT solution, react in a 37° C., 5% CO2 incubator for 4 hours, wash out the media, and DMSO to the cells by 100 μL/well After sufficient dissolution, absorbance was measured at 540 nm with a plate reader to evaluate cell viability.
To confirm the possibility of viral prevention and therapeutic effects of BIA and its analogue compounds, 500 nM treatment of BIA analogue at the same time as viral infection, and then MTT assay whether the viability of cells against viral infection is improved after 24 hours. The results confirmed are shown in the graph of FIG. 82.

For the next data set, the system named is BI-1 (TMBIM6). As to the kind of experiment: TMBIM6-GCaMP3 fluorescence, calcium released through BI-1. As to conditions: 10 μM, compared with DMSO control.

In the case of `O=C(/C=C/c1cccc([N+](=O)[O-])c1)c1ccccc1` [GM-90128, (E)-3-(3-nitrophenyl)-1-phenylprop-2-en-1-one], in data set [1], the viability (commonly a read-out of living cells in per cent, often relative to untreated cells) at 5 µM was 102% and the viability at 10 µM was 57.8%. Further, in data set [2], the viability at 10 µM came out at 81%, the viability at 20 µM is 72.2% and the viability was found to be 62.2%. Also, in data set [3], the AKT serine phosphorylation result was “inhibited”.

Regarding `Nc1ccccc1C(=O)/C=C/c1cccc([N+](=O)[O-])c1` [GM-90129, (E)-1-(2-aminophenyl)-3-(3-nitrophenyl)prop-2-en-1-one], in data set [2], the viability at 10 µM turned out to be 91.4%, the viability at 20 µM was determined as 90.2% and the viability worked out at 61.4%. The viability at 0.5 µM in the data set with SARS-CoV2 virus came to 77.7 ± 3.6%.

Turning to `Nc1ccccc1C(=O)/C=C/c1ccncc1` [GM-90228, (E)-1-(2-aminophenyl)-3-(pyridin-4-yl)prop-2-en-1-one], in data set [1], the viability at 5 µM came out at 30.4% and the viability at 10 µM was 22.8%. Further, in data set [2], the viability at 10 µM worked out at 54.1%, the viability at 20 µM was determined as 37.8% and the viability was 15.1%. Besides, the viability at 0.5 µM with SARS-CoV2 virus amounted to 74.3 ± 3.43%.

Take `COc1cc(N)c(C(=O)/C=C/c2cccc([N+](=O)[O-])c2)cc1OC` [GM-90254, (E)-1-(2-amino-4,5-dimethoxyphenyl)-3-(3-nitrophenyl)prop-2-en-1-one]: in data set [1], the viability at 5 µM worked out at 14.7% and the viability at 10 µM was 8.59%. In data set [2], the viability at 10 µM stood at 61.1%, the viability at 20 µM was 31.5% and the viability was determined as 8.51%. Moreover, the “inhibition of calcium release through BI-1 (TMBIM6-GCaMP3 fluorescence)” value in the data set on BI-1 (TMBIM6) is reported as “stronger inhibitory effect”.

For the compound `CCOc1cccc(/C=C/C(=O)c2ccccc2N)c1` [GM-90295, (E)-1-(2-aminophenyl)-3-(3-ethoxyphenyl)prop-2-en-1-one], in data set [1], the viability at 5 µM is 103% and the viability at 10 µM is 82.4%. Further, in data set [2], the viability at 10 µM was 91.7%, the viability at 20 µM is 86.7% and the viability amounted to 84.7%. Also, the “inhibition of calcium release through BI-1 (TMBIM6-GCaMP3 fluorescence)” value in the data set on BI-1 (TMBIM6) is given as “stronger inhibitory effect”.

Consider `Nc1ccccc1C(=O)/C=C/c1cccc(C(=O)O)c1` [GM-90296, (E)-3-(3-(2-aminophenyl)-3-oxoprop-1-en-1-yl)benzoic acid], for which, in data set [1], the viability at 5 µM amounted to 107% and the viability at 10 µM worked out at 91.6%. Further, in data set [2], the viability at 10 µM was found to be 91%, the viability at 20 µM is 82.3% and the viability came to 76.9%. The “inhibition of calcium release through BI-1 (TMBIM6-GCaMP3 fluorescence)” value with BI-1 (TMBIM6) is listed as “stronger inhibitory effect”.

`Nc1ccc(F)cc1C(=O)/C=C/c1cccc([N+](=O)[O-])c1` [GM-90298, (E)-1-(2-amino-5-fluorophenyl)-3-(3-nitrophenyl)prop-2-en-1-one]: in data set [1], the viability at 5 µM was found to be 21.2% and the viability at 10 µM worked out at 19%. Moreover, in data set [2], the viability at 10 µM was 68.9%, the viability at 20 µM is 62.3% and the viability was determined as 48.7%. The “inhibition of calcium release through BI-1 (TMBIM6-GCaMP3 fluorescence)” value in the data set on BI-1 (TMBIM6) is reported as “stronger inhibitory effect”.

As for `CC(C)(C)OC(=O)Nc1cccc(/C=C/C(=O)c2ccccc2N)c1` [GM-90299, tert-butyl (E)-(3-(3-(2-aminophenyl)-3-oxoprop-1-en-1-yl)phenyl) carbamate], in data set [1], the viability at 5 µM is 93.2% and the viability at 10 µM turned out to be 20.1%. For the same compound, in data set [2], the viability at 10 µM amounted to 82.2%, the viability at 20 µM is 59% and the viability is 17.2%. The “inhibition of calcium release through BI-1 (TMBIM6-GCaMP3 fluorescence)” value in the data set on BI-1 (TMBIM6) is listed as “stronger inhibitory effect”.

`Nc1ccccc1C(=O)/C=C/c1cc(F)c(O)c(F)c1` [GM-90316, (E)-1-(2-aminophenyl)-3-(3,5-difluoro-4-hydroxyphenyl)prop-2-en-1-one]: in data set [1], the viability at 5 µM was determined as 101% and the viability at 10 µM worked out at 67.8%. In data set [2], the viability at 10 µM turned out to be 87.4%, the viability at 20 µM was determined as 60% and the viability was found to be 38.4%.

In the case of `Nc1ccccc1C(=O)/C=C/c1cccc(Cl)c1` [GM-90317, (E)-1-(2-aminophenyl)-3-(3-chlorophenyl)prop-2-en-1-one], in data set [1], the viability at 5 µM worked out at 46.8% and the viability at 10 µM is 14.4%. Further, in data set [2], the viability at 10 µM worked out at 32.4%, the viability at 20 µM is 28.1% and the viability worked out at 11.9%.

Consider `Nc1ccccc1C(=O)/C=C/c1cccc(F)c1` [GM-90318, (E)-1-(2-aminophenyl)-3-(3-fluorophenyl)prop-2-en-1-one], for which, in data set [1], the viability at 5 µM was 21.4% and the viability at 10 µM was 11.8%. The “inhibition of calcium release through BI-1 (TMBIM6-GCaMP3 fluorescence)” value in the data set on BI-1 (TMBIM6) was “stronger inhibitory effect”.

For the compound `COc1cc(N)c(C(=O)/C=C/c2cccc(C#N)c2)cc1OC` [GM-90319, (E)-3-(3-(2-amino-4,5-dimethoxyphenyl)-3-oxoprop-1-en-1-yl)benzonitrile], in data set [1], the viability at 5 µM was found to be 46.6% and the viability at 10 µM worked out at 9.94%. Further, in data set [2], the viability at 10 µM came to 110%, the viability at 20 µM worked out at 88.1% and the viability was determined as 85.8%.

For the compound `COc1cc(N)c(C(=O)/C=C/c2cccc(C(F)(F)F)c2)cc1OC` [GM-90320, (E)-1-(2-amino-4,5-dimethoxyphenyl)-3-(3-(trifluoromethyl)phenyl)prop-2-en-1-one], in data set [1], the viability at 5 µM came to 94.5% and the viability at 10 µM was found to be 62.7%. For the same compound, in data set [2], the viability at 10 µM turned out to be 89.1%, the viability at 20 µM was 89.1% and the viability was found to be 82.4%.

`COc1cc(N)c(C(=O)/C=C/c2cc(O)cc(Br)c2)cc1OC` [GM-90321, (E)-1-(2-amino-4,5-dimethoxyphenyl)-3-(3-bromo-5-hydroxyphenyl)prop-2-en-1-one]: in data set [1], the viability at 5 µM worked out at 61.2% and the viability at 10 µM was found to be 21.2%. Moreover, in data set [2], the viability at 10 µM came to 83.6%, the viability at 20 µM was 81.8% and the viability worked out at 84.8%.

As to `N/C(=N\O)c1cccc(/C=C/C(=O)c2ccccc2N)c1` [GM-90338, (Z)-3-((E)-3-(2-aminophenyl)-3-oxoprop-1-en-1-yl)-N′-hydroxy Benzimidamide], in data set [1], the viability at 5 µM was 44.7% and the viability at 10 µM turned out to be 10.5%. In data set [2], the viability at 10 µM came to 42.8%, the viability at 20 µM was found to be 31.9% and the viability was 11.1%. Besides, the “inhibition of calcium release through BI-1 (TMBIM6-GCaMP3 fluorescence)” value in the data set on BI-1 (TMBIM6) is on record as “stronger inhibitory effect”.

Regarding `Nc1ccccc1-c1cc(-c2cccc(C(F)(F)F)c2)on1` [GM-90340, 2-(5-(3-(trifluoromethyl)phenyl)isoxazol-3-yl)aniline], in data set [1], the viability at 5 µM is 88.7% and the viability at 10 µM amounted to 80.2%. In data set [2], the viability at 10 µM worked out at 92.9%, the viability at 20 µM was found to be 89.3% and the viability came to 76.1%.
